Reference: patent US20100160442A1, “FORMULATIONS FOR CANCER TREATMENT” (priority 2006, published 2010)
Values after ≈ are worked out from the molar mass of the structure shown.

What was measured:
[1] = Equilibrium solubility of 4-iodo-3-nitrobenzamide, overnight at 25° C., measured by HPLC; format: physicochemical; details: for solubility: 25 °C, thermodynamic from solid
Protocol: Excess 4-iodo-3-nitrobenzamide (“BA”) was equilibrated overnight (>16 hr) at 25° C. in purified water, 0.01M HCl (pH2), 0.01M NaOH ([…]), and 0.9% NaCl. Following dilution, the solubility of the drug was measured by HPLC.
Excess 4-iodo-3-nitrobenzamide was equilibrated overnight (>16 hr) at 25° C. in solutions of purified water containing various concentrations of cyclodextrins including hydroxypropyl-β-cyclodextrin (Kleptose® from Roquette) (HPBCD), sulfobutyl ether-β-cyclodextrin (Captisol® from Cyclex) (SBEBCD), and Hyroxypropyl-γ-cyclodextrin (Cavamax W8® from Wacker) (HPGCD). Following dilution, the solubility of the drug was measured by HPLC.
Excess 4-iodo-3-nitrobenzamide was equilibrated overnight (>16 hr) at 25° C. in purified water containing various concentrations of the surfactants: polyethylene sorbitan monooleate (Polysorbate 80), polyoxyethylene sorbitan monolaurate (Polysorbate 20), Cremophor EL (BASF), Cremophor RH40 (BASF), Poloxamer 118, and Solutol HS-15 (BASF). Following dilution, the solubility of the drug was measured by HPLC.
Excess 4-iodo-3-nitrobenzamide was equilibrated overnight (>16 hr) at 25° C. in solutions of purified water containing various co-solvents including ethanol, glycofurol, glycerin formal, benzyl alcohol, N,N, dimethylacetamide (DMA), polyethylene glycol (PEG) 400, and propylene glycol. Following dilution, the solubility of the drug was measured by HPLC.
Excess 4-iodo-3-nitrobenzamide was equilibrated overnight (>16 hr) at 25° C. in solutions in purified water containing mixtures of solubilizers. Following dilution, the solubility of the drug was measured by HPLC.

[2] = Saturated solubility of BA in solvents, 25° C., absorbance at 320 nm; format: physicochemical; details: thermodynamic from solid

- solubility ([1]; 100% ethanol, organic solvent or mixture, Ethanol 100%, 25° C., read-out: Solubility): 14.1 mg/mL (≈ 48.1 mM)
- solubility ([1]; 100% glycerin formal, organic solvent or mixture, Glycerin Formal 100%, 25° C., read-out: Solubility): 15.1 mg/mL (≈ 51.8 mM)
- solubility ([1]; 100% glycofurol, organic solvent or mixture, Glycofurol 100%, 25° C., read-out: Solubility): 15 mg/mL (≈ 51.3 mM)
- Enhancement ([1]; Benzyl alcohol 100%): 85.3
- Enhancement ([1]; Cremophor EL 10%): 19.2
- Enhancement ([1]; Cremophor RH40 10%): 18.5
- Enhancement ([1]; DMA 5%): 7.6
- Enhancement ([1]; DMA 100%): 392.6
- Enhancement ([1]; Ethanol 50%): 31.4
- Enhancement ([1]; Ethanol 100%): 77.2
- Enhancement ([1]; Glycerin Formal 50%): 19.0
- Enhancement ([1]; Glycerin Formal 100%): 83.2
- Enhancement ([1]; Glycofurol 50%): 54.1
- Enhancement ([1]; Glycofurol 100%): 82.3
- Enhancement ([1]; HPBCD 10%, vs no solubilizer): 26.7
- Enhancement ([1]; HPBCD 20%, vs no solubilizer): 54.8
- Enhancement ([1]; HPBCD 25%, vs no solubilizer): 63.0
- Enhancement ([1]; HPBCD 40%, vs no solubilizer): 70.2
- Enhancement ([1]; HPGCD 25%, vs no solubilizer): 1.5
- Enhancement ([1]; PEG 400 50%): 42.1
- Enhancement ([1]; Poloxamer 118 10%): 2.4
- Enhancement ([1]; Polysorbate 20 10%): 20.1
- Enhancement ([1]; Polysorbate 20 100%): 59.6
- Enhancement ([1]; Polysorbate 80 10%): 17.2
- Enhancement ([1]; Polysorbate 80 100%): 92.8
- Enhancement ([1]; Propylene glycol 50%): 12.3
- Enhancement ([1]; SBEBCD 25%, vs no solubilizer): 60.6
- Enhancement ([1]; Solubilizer None 0%): 1.0
- Enhancement ([1]; Solutol HS 15 25%): 36.0
- Enhancement ([1]; Solutol HS 15 30%): 41.0
- solubility ([1]; purified water containing mixtures of solubilizers, aqueous with cosolvent or surfactant or cyclodextrin, 5% Polysorbate 80/10% EtOH/40% PEG 400, 25° C., read-out: Solubility): 1.23 mg/mL (≈ 4.21 mM)
- solubility ([1]; purified water containing mixtures of solubilizers, aqueous with cosolvent or surfactant or cyclodextrin, 10% EtOH/10% Polysorbate 80, 25° C., read-out: Solubility): 2.3 mg/mL (≈ 7.88 mM)
- solubility ([1]; purified water containing mixtures of solubilizers, aqueous with cosolvent or surfactant or cyclodextrin, 10% EtOH/40% PEG 400, 25° C., read-out: Solubility): 3.42 mg/mL (≈ 11.7 mM)
- solubility ([1]; purified water containing mixtures of solubilizers, aqueous with cosolvent or surfactant or cyclodextrin, 10% EtOH/40% PEG 400,/5% Benzyl Alcohol, 25° C., read-out: Solubility): 3.11 mg/mL (≈ 10.7 mM)
- solubility ([1]; purified water containing mixtures of solubilizers, aqueous with cosolvent or surfactant or cyclodextrin, 10% glycofurol, 40% PEG 400, 25° C., read-out: Solubility): 6.12 mg/mL (≈ 21 mM)
- solubility ([1]; purified water, water, Purified Water, 25° C., read-out: Solubility): 0.182 mg/mL (≈ 0.623 mM)
- solubility ([1]; water without solubilizer, water, water, no solubilizer, summary of Table 1, read-out: Solubility in water without any solubilizer): ≤ 0.2 mg/mL
- solubility ([2]; 35% v/v DMA in Capmul PG-8, 25 °C, oil or lipid, 35% v/v DMA in Capmul PG-8, read from the graph of FIG. 2, read-out: Saturated solubility): ~220 mg/mL (≈ 753 mM)
- solubility ([2]; solvent (liquid filled capsule vehicle), 25 °C, oil or lipid, 10% v/v DMA in Capmul, 25° C., read-out: BA Solubility): 57 mg/mL (≈ 195 mM)
- solubility ([2]; solvent (liquid filled capsule vehicle), 25 °C, oil or lipid, 20% v/v DMA in Capmul, 25° C., read-out: BA Solubility): 89 mg/mL (≈ 305 mM)
- solubility ([2]; solvent (liquid filled capsule vehicle), 25 °C, oil or lipid, 30% v/v DMA in Capmul, 25° C., read-out: BA Solubility): 176 mg/mL (≈ 603 mM)
- solubility ([2]; solvent (liquid filled capsule vehicle), 25 °C, oil or lipid, 40% DMA in Capmul, 25° C., read-out: BA Solubility): 276 mg/mL (≈ 945 mM)
- solubility ([2]; solvent (liquid filled capsule vehicle), 25 °C, oil or lipid, 40% v/v Transcutol in Capmul, 25° C., read-out: BA Solubility): 73 mg/mL (≈ 250 mM)
- solubility ([2]; solvent (liquid filled capsule vehicle), 25 °C, oil or lipid, 100% Capmul, 25° C., read-out: BA Solubility): 32 mg/mL (≈ 110 mM)
- solubility ([2]; solvent (liquid filled capsule vehicle), 25 °C, oil or lipid, 100% Labrafil, 25° C., read-out: BA Solubility): 18 mg/mL (≈ 61.6 mM)
- solubility ([2]; solvent (liquid filled capsule vehicle), 25 °C, organic solvent or mixture, 20% v/v glycerol, 3% v/v water in PEG 400, 25° C., read-out: BA Solubility): 192 mg/mL (≈ 657 mM)
- solubility ([2]; solvent (liquid filled capsule vehicle), 25 °C, organic solvent or mixture, 25% w/v Solutol in PEG 400, 25° C., read-out: BA Solubility): 224 mg/mL (≈ 767 mM)
- solubility ([2]; solvent (liquid filled capsule vehicle), 25 °C, organic solvent or mixture, 25% w/v Vit E TPGS in PEG 400, 25° C., read-out: BA Solubility): 204 mg/mL (≈ 699 mM)
- solubility ([2]; solvent (liquid filled capsule vehicle), 25 °C, organic solvent or mixture, 100% NMP, 25° C., read-out: BA Solubility): 319 mg/mL (≈ 1090 mM)
- solubility ([2]; solvent (liquid filled capsule vehicle), 25 °C, organic solvent or mixture, 100% PEG 400, 25° C., read-out: BA Solubility): 186 mg/mL (≈ 637 mM)
- solubility ([2]; solvent (liquid filled capsule vehicle), 25 °C, organic solvent or mixture, 100% Transcutol, 25° C., read-out: BA Solubility): 192 mg/mL (≈ 657 mM)
Structure (SMILES): NC(=O)c1ccc(I)c([N+](=O)[O-])c1 [BA, 4-iodo-3-nitrobenzamide]
